The values that follow come from patent US9957271B2, “Substituted bicyclic aza-heterocycles and analogues as sirtuin modulators” (GlaxoSmithKline, LLC, priority 2012, dated 2018).

Each structure is given as a SMILES string.

The target of experiment [1] is T1, SIRT1 (Homo sapiens, UniProt Q96EB6).
T1 sequence (Q96EB6 1-747): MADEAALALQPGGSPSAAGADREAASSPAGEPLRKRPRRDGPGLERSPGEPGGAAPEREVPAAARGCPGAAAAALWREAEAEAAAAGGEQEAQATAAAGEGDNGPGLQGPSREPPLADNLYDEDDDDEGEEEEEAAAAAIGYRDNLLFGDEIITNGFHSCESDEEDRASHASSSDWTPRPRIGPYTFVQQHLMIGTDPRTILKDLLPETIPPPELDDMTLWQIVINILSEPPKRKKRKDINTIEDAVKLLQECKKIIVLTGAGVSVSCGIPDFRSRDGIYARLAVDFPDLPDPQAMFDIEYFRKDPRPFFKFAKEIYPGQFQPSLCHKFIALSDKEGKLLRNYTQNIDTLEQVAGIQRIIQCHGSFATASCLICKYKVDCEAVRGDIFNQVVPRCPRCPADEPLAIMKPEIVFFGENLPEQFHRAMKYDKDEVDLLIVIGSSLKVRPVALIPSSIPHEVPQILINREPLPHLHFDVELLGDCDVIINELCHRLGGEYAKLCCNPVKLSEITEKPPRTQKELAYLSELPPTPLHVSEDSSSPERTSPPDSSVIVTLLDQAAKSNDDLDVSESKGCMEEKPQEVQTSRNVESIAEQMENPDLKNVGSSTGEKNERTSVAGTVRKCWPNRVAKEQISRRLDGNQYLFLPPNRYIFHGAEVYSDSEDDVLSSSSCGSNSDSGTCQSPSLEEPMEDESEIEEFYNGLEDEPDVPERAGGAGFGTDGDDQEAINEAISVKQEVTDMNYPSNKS
Description: TAMRA based mass spectrometry assay of SIRT1 activity. The note with it: for TAMRA EC1.5 / TAMRA EC1.5 (μM): concentration giving 150% activation of SIRT1; for Emax: percent maximum fold activation, read-out: TAMRA % Fold Act. Format: biochemical. A digest of the protocol:
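Deacetylation of a biotinylated, TAMRA-tagged p53-based peptide (0.5 μM) by 10 nM His-tagged SIRT1 with 120 μM βNAD+, 25 °C for 25 min, pH 8 Tris-acetate buffer, across a compound concentration range. Quenched by formic acid and read by mass spec as product peptide or OAADPR; activity relative to DMSO reactions, nicotinamide defining maximal inhibition.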

Experiment [2] concerns the target T1, SIRT1. Description: Trp mass spectrometry assay of SIRT1 activity. Format: biochemical. The note with it: for Trp EC1.5 / Trp EC1.5 (μM): concentration giving 150% activation of SIRT1; for Emax: percent maximum fold activation, read-out: Trp % Fold Act. A digest of the protocol:
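Activation readout: EC1.5 (concentration raising activity 50% over control) and percent maximum activation, from mass-spec quantitation of OAADPR or deacetylated Trp peptide. Reaction: 0.5 μM acetylated Trp peptide, 120 μM βNAD+, 10 nM bacterially expressed N-His SIRT1, pH 7.5 HEPES buffer with […], 25 min at 25° C.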

`Cc1nc2c(C)cc(-c3ccccc3C(F)(F)F)nn2c1C(=O)Nc1cnccn1` [Compound 586]: in experiment [1] (TAMRA peptide substrate), the “TAMRA EC1.5” value is “A (EC1.5<1 μM)” and the Emax was no less than 350%. For the same compound, in experiment [2] (Trp peptide substrate), the “Trp EC1.5” value is reported as “A (EC1.5<1 μM)” and the Emax is no less than 350%.

With `COc1cccc(C(=O)Nc2c(C)nc3c(C)cc(-c4ccccc4C(F)(F)F)nn23)n1` [Compound 589, N-(2,8-dimethyl-6-(2-(trifluoromethyl)phenyl)imidazo[1,2-b]pyridazin-3-yl)-6-methoxypicolinamide], in experiment [1] (TAMRA peptide substrate), the “TAMRA EC1.5” value was “B (EC1.5 1-25 μM)” and the Emax was no less than 350%. In experiment [2] (Trp peptide substrate), the “Trp EC1.5” value is given as “B (EC1.5 1-25 μM)” and the Emax was less than 350%.

For the compound `Cc1nc2c(C)cc(-c3ccccc3C(F)(F)F)nn2c1NC(=O)c1cccc(O)n1` [Compound 590], in experiment [1] (TAMRA peptide substrate), the “TAMRA EC1.5” value was “B (EC1.5 1-25 μM)” and the Emax was less than 350%. Moreover, in experiment [2] (Trp peptide substrate), the “Trp EC1.5” value was “C (EC1.5>25 μM)” and the Emax is less than 350%.

Regarding `Cc1cc(C)nc(NC(=O)c2cnc3ccc(-c4cccc(OC[C@H](O)CO)c4)nn23)c1` [Compound 591], in experiment [1] (TAMRA peptide substrate), the “TAMRA EC1.5” value is “A (EC1.5<1 μM)” and the Emax was no less than 350%. For the same compound, in experiment [2] (Trp peptide substrate), the “Trp EC1.5” value is “A (EC1.5<1 μM)” and the Emax is less than 350%.

On to `Cc1nc2ccc(-c3cccc(OC[C@H](O)CO)c3)nn2c1C(=O)Nc1ccncn1` [Compound 594], for which, in experiment [1] (TAMRA peptide substrate), the “TAMRA EC1.5” value was “B (EC1.5 1-25 μM)” and the Emax was less than 350%. Moreover, in experiment [2] (Trp peptide substrate), the “Trp EC1.5” value is “B (EC1.5 1-25 μM)” and the Emax is less than 350%.

As to `Cc1nc2ccc(-c3cccc(OC[C@H](O)CO)c3)nn2c1C(=O)Nc1cccnn1` [Compound 597], in experiment [1] (TAMRA assay), the “TAMRA EC1.5 (μM)” value is “B (EC1.5 1-25 μM)” and the Emax is less than 350%. In experiment [2] (Trp assay), the “Trp EC1.5 (μM)” value is listed as “A (EC1.5<1 μM)” and the Emax was less than 350%.

For the compound `Cc1cc(-c2ccccc2C(F)(F)F)nn2c(C(=O)Nc3ccnc(O[C@@H]4CCOC4)n3)cnc12` [Compound 598], in experiment [1] (TAMRA assay), the “TAMRA EC1.5 (μM)” value is on record as “A (EC1.5<1 μM)” and the Emax was no less than 350%. Also, in experiment [2] (Trp assay), the “Trp EC1.5 (μM)” value is given as “A (EC1.5<1 μM)” and the Emax was no less than 350%.

For the compound `CCOc1nccc(NC(=O)c2cnc3ccc(-c4ccccc4C(F)(F)F)nn23)n1` [Compound 600], in experiment [1] (TAMRA assay), the “TAMRA EC1.5 (μM)” value is “A (EC1.5<1 μM)” and the Emax was no less than 350%. In experiment [2] (Trp assay), the “Trp EC1.5 (μM)” value was “A (EC1.5<1 μM)” and the Emax is no less than 350%.

As to `Cc1cnc(NC(=O)c2cnn3ccc(-c4ccccc4OC(F)(F)F)nc23)s1` [Compound 603], in experiment [1] (TAMRA assay), the “TAMRA EC1.5 (μM)” value is “B (EC1.5 1-25 μM)” and the Emax was no less than 350%. For the same compound, in experiment [2] (Trp assay), the “Trp EC1.5 (μM)” value is listed as “B (EC1.5 1-25 μM)” and the Emax is less than 350%.

`Cc1ccnc(NC(=O)c2cnn3ccc(-c4ccccc4OC(F)(F)F)nc23)c1` [Compound 604]: in experiment [1] (TAMRA assay), the “TAMRA EC1.5 (μM)” value is “A (EC1.5<1 μM)” and the Emax was no less than 350%. Further, in experiment [2] (Trp assay), the “Trp EC1.5 (μM)” value is on record as “B (EC1.5 1-25 μM)” and the Emax is less than 350%.

With `O=C(Nc1ccncc1F)c1cnn2ccc(-c3ccccc3OC(F)(F)F)nc12` [Compound 606], in experiment [1] (TAMRA assay), the “TAMRA EC1.5 (μM)” value is given as “A (EC1.5<1 μM)” and the Emax was no less than 350%. Besides, in experiment [2] (Trp assay), the “Trp EC1.5 (μM)” value is “A (EC1.5<1 μM)” and the Emax was less than 350%.

Consider `O=C(Nc1ccc(F)cn1)c1cnn2ccc(-c3ccccc3OC(F)(F)F)nc12` [Compound 609], for which, in experiment [1] (TAMRA assay), the “TAMRA EC1.5 (μM)” value is “C (EC1.5>25 μM)” and the Emax was less than 350%. In experiment [2] (Trp assay), the “Trp EC1.5 (μM)” value is on record as “C (EC1.5>25 μM)” and the Emax is less than 350%.

As for `Cc1ccncc1NC(=O)c1cnn2ccc(-c3ccccc3OC(F)(F)F)nc12` [Compound 610], in experiment [1] (TAMRA assay), the “TAMRA EC1.5 (μM)” value is recorded as “B (EC1.5 1-25 μM)” and the Emax was less than 350%. In experiment [2] (Trp assay), the “Trp EC1.5 (μM)” value was “A (EC1.5<1 μM)” and the Emax was no less than 350%.

On to `Cc1cc(NC(=O)c2cnn3ccc(-c4ccccc4OC(F)(F)F)nc23)ccn1` [Compound 612], for which, in experiment [1] (TAMRA assay), the “TAMRA EC1.5 (μM)” value is “A (EC1.5<1 μM)” and the Emax is no less than 350%. For the same compound, in experiment [2] (Trp assay), the “Trp EC1.5 (μM)” value was “A (EC1.5<1 μM)” and the Emax was no less than 350%.

As for `Cc1cc(-c2ccccc2C(F)(F)F)nn2c(C(=O)Nc3ccnc(OC(C)C)n3)cnc12` [Compound 615], in experiment [1] (TAMRA assay), the “TAMRA EC1.5 (μM)” value is “A (EC1.5<1 μM)” and the Emax is no less than 350%. In addition, in experiment [2] (Trp assay), the “Trp EC1.5 (μM)” value was “A (EC1.5<1 μM)” and the Emax is no less than 350%.

`Cc1cncc(NC(=O)c2cnn3ccc(-c4ccccc4OC(F)(F)F)nc23)c1` [Compound 616]: in experiment [1] (TAMRA assay), the “TAMRA EC1.5 (μM)” value is “A (EC1.5<1 μM)” and the Emax was no less than 350%. In experiment [2] (Trp assay), the “Trp EC1.5 (μM)” value was “A (EC1.5<1 μM)” and the Emax is no less than 350%.

Take `Cc1ccc(NC(=O)c2cnn3ccc(-c4ccccc4C(F)(F)F)nc23)nc1` [Compound 618]: in experiment [1] (TAMRA assay), the “TAMRA EC1.5 (μM)” value is reported as “A (EC1.5<1 μM)” and the Emax was no less than 350%. Further, in experiment [2] (Trp assay), the “Trp EC1.5 (μM)” value was “B (EC1.5 1-25 μM)” and the Emax was no less than 350%.

For `Cc1ccc(NC(=O)c2cnn3ccc(-c4ccccc4OC(F)(F)F)nc23)cn1` [Compound 621], in experiment [1] (TAMRA assay), the “TAMRA EC1.5 (μM)” value was “A (EC1.5<1 μM)” and the Emax is no less than 350%. Besides, in experiment [2] (Trp assay), the “Trp EC1.5 (μM)” value was “A (EC1.5<1 μM)” and the Emax was no less than 350%.

With `Cc1ncccc1NC(=O)c1cnn2ccc(-c3ccccc3OC(F)(F)F)nc12` [Compound 622], in experiment [1] (TAMRA assay), the “TAMRA EC1.5 (μM)” value is “B (EC1.5 1-25 μM)” and the Emax is less than 350%. In experiment [2] (Trp assay), the “Trp EC1.5 (μM)” value was “A (EC1.5<1 μM)” and the Emax was no less than 350%.

As for `O=C(Nc1cccnn1)c1cnn2ccc(-c3ccccc3OC(F)(F)F)nc12` [Compound 624], in experiment [1] (TAMRA assay), the “TAMRA EC1.5 (μM)” value is listed as “A (EC1.5<1 μM)” and the Emax is no less than 350%. In experiment [2] (Trp assay), the “Trp EC1.5 (μM)” value was “A (EC1.5<1 μM)” and the Emax was no less than 350%.

On to `COCCOc1nccc(NC(=O)c2cnc3c(C)cc(-c4ccccc4C(F)(F)F)nn23)n1` [Compound 627], for which, in experiment [1] (TAMRA assay), the “TAMRA EC1.5 (μM)” value was “A (EC1.5<1 μM)” and the Emax is no less than 350%. Also, in experiment [2] (Trp assay), the “Trp EC1.5 (μM)” value is “A (EC1.5<1 μM)” and the Emax was no less than 350%.

With `Cc1cccc(NC(=O)c2c(C)nn3ccc(-c4ccccc4C(F)(F)F)nc23)n1` [Compound 628, 2-methyl-N-(6-methylpyridin-2-yl)-5-(2-(trifluoromethyl)phenyl)pyrazolo[1,5-a]pyrimidine-3-carboxamide], in experiment [1] (TAMRA assay), the “TAMRA EC1.5 (μM)” value was “A (EC1.5<1 μM)” and the Emax is no less than 350%. For the same compound, in experiment [2] (Trp assay), the “Trp EC1.5 (μM)” value is “A (EC1.5<1 μM)” and the Emax was no less than 350%.

For the compound `Cc1ncccc1NC(=O)c1cnn2ccc(-c3ccccc3C(F)(F)F)nc12` [Compound 630], in experiment [1] (TAMRA assay), the “TAMRA EC1.5 (μM)” value is reported as “B (EC1.5 1-25 μM)” and the Emax is less than 350%. For the same compound, in experiment [2] (Trp assay), the “Trp EC1.5 (μM)” value is recorded as “A (EC1.5<1 μM)” and the Emax is no less than 350%.

Turning to `Cc1ccc(NC(=O)c2cnn3ccc(-c4ccccc4OC(F)(F)F)nc23)nn1` [Compound 633], in experiment [1] (TAMRA assay), the “TAMRA EC1.5 (μM)” value was “A (EC1.5<1 μM)” and the Emax was no less than 350%. In experiment [2] (Trp assay), the “Trp EC1.5 (μM)” value is “B (EC1.5 1-25 μM)” and the Emax is less than 350%.

As for `COCCOc1nccc(NC(=O)c2cnc3ccc(-c4ccccc4C(F)(F)F)nn23)n1` [Compound 634], in experiment [1] (TAMRA assay), the “TAMRA EC1.5 (μM)” value is on record as “A (EC1.5<1 μM)” and the Emax is no less than 350%. In experiment [2] (Trp assay), the “Trp EC1.5 (μM)” value was “A (EC1.5<1 μM)” and the Emax was no less than 350%.
